According to publication PMC1199608 (Cancer Cell International, 2005):
Entries after “also recorded” stand apart in the source; their conditions may differ. Where two headings read alike, the source gives them in different places. No end group written: not given here.

Assays:
Jurkat cells [1] = experiment: Apoptosis by electron microscopy; assay type: cell-based; settings: 4-hr incubation, 62.5 μM Pep27anal2, 100 μM etoposide, 200–400 cells counted per group
Description: Jurkat cells were harvested and immediately fixed in phosphate-buffered glutaraldehyde solution (pH 7.2) for 2 hrs and then fixed in 1% buffered osmium tetroxide for 2 hrs at 4°C. After processing through a graded series of ethanol and propylene oxide, the cells were embedded in Epon. A semi-thin (1 μm) section was cut and stained with toluidine blue for the ultrastructural examination. Ultra-thin (60–90 nm) sections were also prepared from the Epon block above using an ultramicrotome (LKB-V, Sweden), stained with uranyl acetate and lead citrate, and examined under a Hitachi H-7600 electron microscope (Hitachi, Kyoto, Japan). Apoptosis detection was done by taking photographs (×1,000) of the entire field of each ultra-thin sectioned sample. The degree of apoptosis (apoptosis index) was defined as the number of apoptotic cells expressed as a percentage of the total cell count.

Jurkat cells [2] = experiment: Apoptosis and membrane integrity by flow cytometry (annexin V-FITC / PI); assay type: cell-based; settings: 4 hr, 12.5 μM or 63 μM Pep27anal2, 12.5 μM mellitin, 100 μM etoposide
Description: Annexin V binding was assessed by flow cytometry, and cell staining was evaluated using FITC-labeled annexin V (green fluorescence), and propidium iodide (PI) ([…]) simultaneously. This test was able to discriminate between intact cells (FITC-/PI-), apoptotic cells (FITC+/PI-) and necrotic cells (FITC+/PI+) (Vermes et al., 1995). Jurkat cells (10^5/ml) were exposed to etoposide (100 μM), mellitin (12.5 μM) and Pep27anal2 (12.5 μM and 62.5 μM) for 4 hr. Cells were washed with PBS, resuspended in 400 μl of binding buffer (10 mM Hepes/NaOH, pH 7.4, 140 mM NaCl, 2.5.mM CaCl2), and incubated with 10 μl of annexin V-FITC (MedSystems Diagnostics, GmbH, […]) for 10 min at room temperature. After incubation, cells were washed with binding buffer and exposed to 1 μg of PI in a final volume of 400 μl. FITC and PI fluorescences were determined using a flow cytometer (Becton Dickinson, Franklin Lakes, FL, USA)
In the present study, Jurkat cells were treated with 100 μM of etoposide, 12.5 μM of mellitin or 12.5 μM or 63 μM of Pep27anal2 for 4 hr. Apoptosis and membrane integrity were then determined using annexin V and propidium iodide, respectively, as described in "Materials and methods". […] Dead cells appear first in the lower right quadrant (apoptosis), where death was due to the externalization of PS (detected with annexin V-FITC).

[3] = system: AML-2 acute myelogenous leukemia cell line; settings: MTT assay, from semilogarithmic dose-response curves, at least in duplicate
Description: (§1) OCI-AML-2 (AML-2) cell line was obtained from the Ontario Cancer Institute (Toronto, Canada), and Jurkart and HL-60 cell lines from the American Type Culture Collection (ATCC, USA). These three cell lines were cultured at 37°C in a 5% CO2 atmosphere using α-MEM medium (GibcoBRL, Gland Island, NY, USA) containing 10% heat-inactivated fetal bovine serum (FBS, Sigma, ST. Louis, MO, USA). MCF-7 and NIH/3T3 cell lines from ATCC and SNU-601 cell line from the Korean Cancer Cell Bank (Seoul, Korea) were cultured under the same conditions but using RPMI-1640 medium (GibcoBRL, Gland Island, NY, USA) containing 10% heat-inactivated FBS. Cells were maintained in suspension or as monolayer cultures, and subcultured.
(§2) The in vitro cytotoxicity of the Pep27 analogues produced was measured by MTT [3-(4,5-dimethylthiazol-2-yl)-2,5-diphenyl tetrazolium bromide, Sigma, ST. Louis, USA] assay, as described by. IC50 values were determined directly from semilogarithmic dose-response curves. Experiments were carried out at least in duplicate.
(§3) To evaluate the anticancer activities of the Pep27 analogues, different concentrations of these peptides were administered to various cancer cell lines, and cytotoxicities were then determined by MTT assay. In this study, we used both anchorage-dependent and independent cancer cell lines. These included AML-2 an acute myelogenous leukemia cell line, HL-60 an acute promyelocytic leukemia cell line, Jurkat a T cell leukemia cell line, SNU-601 a gastric cancer cell line and MCF-7 a breast cancer cell line.

[4] = system: Jurkat T cell leukemia cell line; settings: MTT assay, from semilogarithmic dose-response curves, at least in duplicate
Description: as §1, §2, §3

[5] = system: HL-60 acute promyelocytic leukemia cell line; settings: MTT assay, from semilogarithmic dose-response curves, at least in duplicate
Description: as §1, §2, §3

[6] = system: SNU-601 gastric cancer cell line; settings: MTT assay, from semilogarithmic dose-response curves, at least in duplicate
Description: as §1, §2, §3

[7] = system: MCF-7 breast cancer cell line; settings: MTT assay, from semilogarithmic dose-response curves, at least in duplicate
Description: as §1, §2, §3

human erythrocytes = settings: 4% human erythrocytes in PBS pH 7.0, 1 h at 37°C, absorbance 414 nm, 100% = 0.1% Triton-100
Description: Peptide hemolytic activities were measured as described by, by determining hemoglobin release by 4% suspensions of fresh human erythrocytes at 414 nm. Briefly, human erythrocyte cells were centrifuged and washed three times with phosphate-buffered saline (PBS: 35 mM phosphate buffer/0.15 M NaCl, pH 7.0). […] of human red blood cells suspended 8% (v/v) in PBS were the inoculated into 96-well plates. […] of the peptide solution, Pep27 or its analogues, was then added to each well. The plates were incubated for 1 h at 37°C, and centrifuged at 150 g for 5 min. […] aliquots of the supernatant obtained were transferred to flat-bottom 96-microtiter plates. Hemolysis was determined by measuring absorbance at 414 nm with an ELISA plate reader (Molecular Devices Emax, Sunnyvale, CA, USA). Hemolysis rates of 0% or 100% were determined as the same way with PBS and 0.1% Triton-100, respectively. Hemolysis percent was calculated using the following equation: % hemolysis = [(Abs414nm in the peptide solution - Abs414nm in PBS)/(Abs414nm in 0.1% Triton-100 - Abs414nm in PBS)] × 100.

Jurkat cells [8] = experiment: Cytochrome c release from mitochondria to cytosol (Western blotting); assay type: cell-based; settings: Jurkat cells (5 × 10^5/ml), 62.5 μM, 4 h
Description: Cytochrome c immunoblotting was performed using a slight modification of a previously described method. Jurkat cells were collected by centrifugation at 200 g for 5 min at 4°C. The cells were then washed twice with ice-cold PBS, pH 7.4, and centrifuged at 200 g for 5 min. The cell pellet obtained was then resuspended in 600 μl of extraction buffer, containing 20 mM Hepes-KOH (pH 7.5), 10 mM KCl, 250 mM sucrose, 1 mM EGTA, 1 mM EDTA, 1.5 mM MgCl2, 1 mM dithiothreitol and 0.1 mM phenylmethylsulfonyl fluoride.
After incubation for 30 min on ice, the cells were homogenized (20 strokes), spun at 14,000 g for 15 min, supernatants were separated from the mitochondrial fraction, and both were stored at -70°C, until required for gel electrophoresis. The mitosol fraction was obtained by adding 0.1% SDS. […]
Cytochrome c is a well-characterized mitochondrial protein and is involved in cellular energy metabolism. […] After these incubations, cytochrome c in the cytosol fraction, obtained by 14,000 g centrifugation for 15 min, and in the mitosol, obtained by adding 0.1% SDS to the mitochondrial fraction, was determined by Western blotting.

| Compound | apoptosis (apoptotic cells by electron microscopy) (Jurkat cells [1]) | annexin V-FITC staining (apoptosis) and PI staining (membrane integrity) (Jurkat cells [2]) | IC50 [3] [µM] | IC50 [4] [µM] | IC50 [5] [µM] | IC50 [6] [µM] | IC50 [7] [µM] | % Hemolysis (human erythrocytes; 0.19 μM peptide) [%] | % Hemolysis (human erythrocytes; 0.39 μM peptide) [%] | % Hemolysis (human erythrocytes; 0.78 μM peptide) [%] | % Hemolysis (human erythrocytes; 1.56 μM peptide) [%] | % Hemolysis (human erythrocytes; 3.12 μM peptide) [%] | % Hemolysis (human erythrocytes; 6.25 μM peptide) [%] | % Hemolysis (human erythrocytes; 12.5 μM peptide) [%] | cytochrome c release from mitochondria into the cytosol (Jurkat cells [8]) |
| --- | --- | --- | --- | --- | --- | --- | --- | --- | --- | --- | --- | --- | --- | --- | --- |
| COc1cc([C@@H]2c3cc4c(cc3[C@@H](O[C@@H]3O[C@@H]5CO[C@@H](C)O[C@H]5[C@H](O)[C@H]3O)[C@H]3COC(=O)[C@H]23)OCO4)cc(OC)c1O [Etoposide, etoposide, reference compound] | Apoptotic cells were more frequent than in the control group |  |  |  |  |  |  |  |  |  |  |  |  |  |  |
| CC[C@H](C)[C@H](NC(=O)CN)C(=O)NCC(=O)N[C@@H](C)C(=O)N[C@H](C(=O)N[C@@H](CC(C)C)C(=O)N[C@@H](CCCCN)C(=O)N[C@H](C(=O)N[C@@H](CC(C)C)C(=O)N[C@H](C(=O)N[C@H](C(=O)NCC(=O)N[C@@H](CC(C)C)C(=O)N1CCC[C@H]1C(=O)N[C@@H](C)C(=O)N[C@@H](CC(C)C)C(=O)N[C@H](C(=O)N[C@@H](CO)C(=O)N[C@@H](Cc1c[nH]c2ccccc12)C(=O)N[C@H](C(=O)N[C@@H](CCCCN)C(=O)N[C@@H](CCCNC(=N)N)C(=O)N[C@@H](CCCCN)C(=O)N[C@@H](CCCNC(=N)N)C(=O)N[C@@H](CCC(N)=O)C(=O)N[C@@H](CCC(N)=O)C(N)=O)[C@@H](C)CC)[C@@H](C)CC)[C@@H](C)O)[C@@H](C)O)C(C)C)C(C)C [Mellitin, reference compound] |  | increased the distribution of PI staining without an increase of annexin V-FITC staining |  |  |  |  |  |  |  |  |  |  |  |  |  |
| MRKEFHNVLSSGQLLADKRPARDYNRK-NH2 [Pep27, reference compound] |  |  | > 70 | > 70 | > 70 | > 70 | > 70 | 0 | 0 | 0 | 0 | 0 | 0 | 0 |  |
| MWKEFHNVLSSGQLLADKRWARWYNRW-NH2 [Pep27anal4] |  |  | 50 | 46 | 51 | 37 | 29 | 0 | 0 | 0 | 0 | 0 | 0 | 0 |  |
| MWKWFHNVLSSGQLLADKWWAWWYNWW-NH2 [Pep27anal5] |  |  | > 70 | > 70 | > 70 | > 70 | > 70 | 0 | 0 | 0 | 0 | 0 | 0 | 0 |  |
| MWKWFHNVLSWWWLLADKRPARDYNRK-NH2 [Pep27anal2] | Apoptotic cells were most frequent in this group; also recorded: induced more apoptosis than 100 μM of etoposide | caused a higher level of annexin V-FITC staining with a little increase of PI staining than etoposide |  |  |  |  |  |  |  |  |  |  |  |  | did not induce cytochrome c release |
